The record followed here is patent US20230381170A1, “METHOD FOR TREATING ALS/FTD THROUGH DEGRADATION OF RNA REPEAT EXPANSION” (University of Florida Research Foundation, Incorporated, priority 2020, published 2023).

For one data set, the target named is T1, Human Topoisomerase II (Homo sapiens, UniProt P11388).
T1 construct: purchased TopoGen
Nature of the data set: Topoisomerase assay. The class given is biochemical. On the procedure:
Topoisomerase Assay. Topoisomerase inhibition was assessed in vitro using the TopoGen Human Topoisomerase II Assay Kit per manufacturer's recommended protocol. Samples were run on a 1% agarose gel post-stained with ethidium bromide. Topoisomerase inhibition was quantified as a percentage of linearized DNA compared to the positive control compound VP-16 supplied.

Data set [1] has as its system RAN translation of r(G4C2)66. Description: RAN translation assay in HEK293T cells. It is filed as cell-based, human. Here is the method:
RAN Translation Assay. Inhibition of RAN translation in HEK239T cells was completed as previously described (12). Briefly, HEK293T cells (6×10^6 cells) were seeded in growth medium and incubated at 37° C. overnight. Cells were co-transfected with 2 μg of a plasmid encoding r(G4C2)66-No ATG-NanoLuciferase and 1 μg SV40-Firefly luciferase plasmid with Lipofectamine 3000 (Life Technologies) per the manufacturer's protocols. Following transfection, the cells (˜8000/well) were plated in a clear bottom 384-well plate and incubated at 37° C. for 2 h. Compounds were added in growth medium such that the final concentration of DMSO was less than 1%. The G4C2-LNA and control-LNA (Table 3) were transfected with RNAiMax at a final concentration of 100 nM following transfection with RNAiMax (Life Technologies) per the manufacturer's recommended protocol. RAN and canonical translation was measured following 24 h treatment using a Dual-Luciferase® Reporter Assay System (Promega) following manufacturer's protocol. Experiments were performed as biological triplicates (n=3). Luminescence from Nano-Luciferase activity (RAN translation) was normalized to luminescence from firefly luciferase activity. This ratio for vehicle-treated samples was then set to 1 and the ratios for treated samples normalized accordingly.

The subject of the next data set is r(G4C2)4. Nature of the data set: 1D NMR imino proton monitoring. The class given is binding. On the procedure: (§1) Preparation of MNR Samples. RNA constructs were purchased from GE Dharmacon, Inc. After deprotection and desalting, RNAs were dissolved in buffer comprising 10 mM sodium phosphates and 100 mM LiCl at pH 7.0 and reannealed by heating to 95° C. for 4 min followed by cooling to room temperature. Solvent consisted of H2O, to which 20 μL of D2O was added to provide a lock signal. Final concentrations of RNA were 100 μM for 1D NMR spectroscopy and 400 μM of RNA for 2D NMR spectroscopy. Dimeric derivatives 2 and 3 were dissolved in DMSO-d6 to 10 mM concentrations.
(§2) NMR Spectroscopy. NMR spectra were acquired on samples in Shigemi tubes using Bruker Avance 600 and 700 MHz spectrometers equipped with cryoprobes. 1D spectra were recorded on free form RNA, to which 2 and 3 was added to final compound/RNA molar ratios of 0.5 and 1.0. 2D spectra were acquired with 400 ms mixing times on samples containing 3 at 1.0 compound/RNA molar ratio. In 1D and 2D NMR spectra, WATERGATE and excitation pulse sequences were used to suppress the water signal, respectively (53-55). Proton chemical shifts were referenced internally to 4,4-dimethyl-4-silapentane-1-sulfonic acid (DSS, 0.1 mM). 1D spectra were processed using MestreNOVA software. 2D spectra were processed using NMRPipe and assigned using SPARKY (56).

The subject of the next data set is r(G2C2)4. Description: 1D NMR imino proton monitoring. The settings on record: hairpin with fully paired stem. The class given is binding. Here is the method:
as §1, §2

The subject of data set [2] is r(G4C2)exp-containing nuclear foci. Nature of the data set: RNA FISH of foci in brain of +/+PWR500 mice. The class given is in vivo, mouse. As to conditions: compared to vehicle. Here is the method: Therapeutic Efficacy in a c9ALS/FD mouse model. All animal studies were completed as approved by the Scripps Florida Institutional Animal Care and Use Committee. A total of 24 mice (12+/+PWR500 [7 Male and 5 Female] and 12 WT [6 Male and 6 Female]) mice, age- and gender-matched and ranging in age from 18-22 weeks old were used in therapeutic efficacy studies (Table 6). Mice were anesthetized by intraperitoneal (i.p.) injection of 10 mg/mL Ketamine:1 mg/mL Xylazine solution. Intracerebroventricular (ICV) stereotactic injections of 10 μL of 7 (33 nmol) were administered into the right ventricle using the following coordinates: 0.2 mm posterior and 1.0 mm lateral to the right from the bregma and 3 mm deep. Mice were treated with 7 or vehicle consisting of 1% DMSO in Saline. Three weeks post-treatment, mice were euthanized, and tissue was harvested for study.
Fluorescence in situ Hybridization (FISH) with Immunofluorescence (IF). Tissues were excised, and brain tissue was sliced at the midline. The right hemisphere was fresh frozen with OCT in 2-methylbutane in liquid nitrogen, and 10 μm thick sections were prepared using a cryostat. The slides were then stained as previously described (36). […] Average number of foci per nuclei was assessed for each sample and reported. Statistical analysis was measured using an unpaired t-test with Welch's correction.

In data set [3] the test system is C9orf72 exon 1b transcripts lacking r(G4C2)exp. Description: C9orf72 exon 1b RT-qPCR in patient-derived LCLs. The class given is cell-based, human. The settings on record: any concentration. Here is the method: Measuring Levels of C9orf72 and C9orf72 Variants by RT-qPCR. LCLs were seeded in 6-well plate (˜10^6 cells in 2 mL of growth medium) and incubated overnight at 37° C. Cells were then treated with various concentrations of compound for 24 h or with G4C2-ASO and Control-ASO (100 nM), delivered by transfection with Lipofectamine RNAiMax. RNA was extracted as described above and the expression of C9orf72 variants was determined by RT-qPCR. […] For compound treatment well, medium change was performed with fresh compound every 3-4 days. RNA was extracted as described above and the expression of C9orf72 variants was determined by RT-qPCR.
A general note: Real-time PCR tracks product formation cycle by cycle.

The structures appear in SMILES notation.

T1 sequence (P11388 whole entry): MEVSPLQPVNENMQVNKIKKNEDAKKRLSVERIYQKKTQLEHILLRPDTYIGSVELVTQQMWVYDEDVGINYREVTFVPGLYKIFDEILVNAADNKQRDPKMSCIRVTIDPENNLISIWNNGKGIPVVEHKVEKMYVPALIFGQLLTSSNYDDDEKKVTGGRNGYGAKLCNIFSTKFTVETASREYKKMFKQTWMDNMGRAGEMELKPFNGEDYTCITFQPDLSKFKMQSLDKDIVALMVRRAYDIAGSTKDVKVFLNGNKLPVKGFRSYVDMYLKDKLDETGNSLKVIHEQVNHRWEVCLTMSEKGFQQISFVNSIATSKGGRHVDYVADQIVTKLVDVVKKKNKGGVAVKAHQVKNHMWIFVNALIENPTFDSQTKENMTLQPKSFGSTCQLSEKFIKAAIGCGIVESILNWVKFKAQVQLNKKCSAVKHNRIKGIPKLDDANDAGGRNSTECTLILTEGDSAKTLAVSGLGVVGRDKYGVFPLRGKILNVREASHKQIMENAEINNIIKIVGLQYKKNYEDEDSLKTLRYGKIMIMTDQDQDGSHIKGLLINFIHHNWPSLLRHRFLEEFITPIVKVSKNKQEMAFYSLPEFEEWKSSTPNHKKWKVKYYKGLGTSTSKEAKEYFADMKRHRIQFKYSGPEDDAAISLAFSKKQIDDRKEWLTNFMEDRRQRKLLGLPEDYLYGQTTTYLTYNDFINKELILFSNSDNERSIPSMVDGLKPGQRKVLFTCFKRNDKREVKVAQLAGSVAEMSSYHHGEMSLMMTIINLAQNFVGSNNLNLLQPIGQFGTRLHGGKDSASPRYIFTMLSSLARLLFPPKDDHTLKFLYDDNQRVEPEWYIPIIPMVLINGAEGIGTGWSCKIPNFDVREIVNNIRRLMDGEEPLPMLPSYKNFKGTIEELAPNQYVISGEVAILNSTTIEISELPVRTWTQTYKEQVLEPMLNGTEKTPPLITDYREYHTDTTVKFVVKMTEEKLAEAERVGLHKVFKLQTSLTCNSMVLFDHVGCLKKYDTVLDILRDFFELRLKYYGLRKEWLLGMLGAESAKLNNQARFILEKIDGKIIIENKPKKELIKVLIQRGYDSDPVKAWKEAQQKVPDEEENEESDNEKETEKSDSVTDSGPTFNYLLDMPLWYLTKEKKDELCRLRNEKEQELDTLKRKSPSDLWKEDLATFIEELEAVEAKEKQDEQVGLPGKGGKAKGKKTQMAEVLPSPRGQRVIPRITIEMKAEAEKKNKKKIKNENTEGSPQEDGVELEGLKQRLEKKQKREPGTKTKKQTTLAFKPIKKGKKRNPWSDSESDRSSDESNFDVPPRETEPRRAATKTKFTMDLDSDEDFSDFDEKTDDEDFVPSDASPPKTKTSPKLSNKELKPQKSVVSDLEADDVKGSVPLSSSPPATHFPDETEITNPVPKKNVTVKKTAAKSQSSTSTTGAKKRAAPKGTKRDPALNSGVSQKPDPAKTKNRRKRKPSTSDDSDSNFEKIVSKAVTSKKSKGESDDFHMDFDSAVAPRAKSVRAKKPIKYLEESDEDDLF

As for `Cc1c2ccncc2c(C)c2c1[nH]c1ccc(OCCOCCOCCNCCOCCOCCOc3ccc4[nH]c5c(C)c6ccncc6c(C)c5c4c3)cc12` [Compound 3], at Human Topoisomerase II, the “topoisomerase activity in vitro” value is “did not inhibit”. In addition, in data set [1], the “RAN translation of r(G4C2)66 (Nano-luciferase activity)” value was “inhibited”. The “complex formation, imino proton region 1D NMR” value in the data set on r(G4C2)4 is “verified”. The “changes in 1D NMR spectrum upon addition of compound” value with r(G2C2)4 was “no changes were observed”.
With `CCOC(=O)C1=C(Nc2ccccc2)S/C(=C\c2ccc(OCCOCCOCCOCCNC(=O)CCC(=O)N(CCOCCOCCOc3ccc4[nH]c5c(C)c6ccncc6c(C)c5c4c3)CCOCCOCCOc3ccc4[nH]c5c(C)c6ccncc6c(C)c5c4c3)c(O)c2)C1=O` [Compound 7], in data set [2] (brain), the “number of r(G4C2)exp-containing nuclear foci” value is on record as “decreased”. Also, the “abundance of antisense r(G2C4)exp foci” value in data set [2] is “No effect”. Moreover, the “C9orf72 transcripts that lack r(G4C2)exp (exon 1b)” value in data set [3] is “no decrease”.
